From patent publication US8822506B2, “Use of succinate dehydrogenase inhibitors for controlling powdery mildew primary infections” (Bayer Cropscience AG, priority 2009, dated 2014) come the findings set out here.

Holding throughout (assay type): in vivo, Podosphera leucotricha
For experiment [1], the system named is Powdery mildew. Description: Apple orchard field trial, powdery mildew primary infection of shoots in the following year, assessed 345 days after application 8. Conditions: proximate year (assessment 345DAT8), without any other application; dose rate relation, 18.5 to 50 g a.s./m c.h.
For experiment [2], the system named is Powdery mildew. Description: Apple orchard field trial, powdery mildew secondary infections on leaves (incidence), assessed 10 days after application 8. Conditions: for 10DAT8 [% infested leaves] / 10DAT8 [% efficacy] (Abbott): apples, 10 days after application 8; for 10DAT8 [% infested leaves]: 8 applications at 10-day interval, untreated 96; for 10DAT8 [% efficacy] (Abbott): 8 applications, infested leaves. As to the method:
(§1) Fluopyram was tested in apples orchard in comparison with already know fungicides active against Powdery mildew such as triadimenol (Bayleton) and boscalid.
(§2) Fluopyram was applied at range of rates: 18.5 g-25 g-37.5-50 g a.s./ha/meter canopy height (g ha/m c.h.). Bayleton was applied at 25 g a.s./ha/m c.h. Boscalid (Cantus WG50) was applied at 125 g a.s./m c.h.
(§3) During the spray season, the compounds were applied at apple susceptible stages from BBCH09 (green leaf tips 5 mm above bud scales to BBCH73 Fruit size between 20 and 40 mm (as described in BBCH Monograph, 2. Edition, 2001, edited by Uwe Meier, Federal Biological Research Centre for Agriculture and Forestry) in order to protect leaves, buds and shoots against Powdery mildew. The compounds have been applied eight times with an interval of ten days during spray season.
(§4) The type of assessments of infections was: • % infested area on leaves (severity) and % infested leaves (incidence) were assessed 10 days after application 8 (10DAT8). • Count and % infested shoots (primary infection) were assessed 345 days after application 8 (345 DAT8). Results

Experiment [3] concerns Powdery mildew. The experiment can be described thus: Apple orchard field trial, powdery mildew primary infection of shoots in the following year, assessed 345 days after application 8. Conditions: apples, 8 applications; for 345DAT8 [% infested shoots]: 345 days after application 8, no other application, untreated 45.2; for 345DAT8 [% efficacy] (Abbott): 345 days after application 8, infested shoots. As to the method: as §1, §2, §3, §4

Turning to `O=C(NCCc1ncc(C(F)(F)F)cc1Cl)c1ccccc1C(F)(F)F` [Fluopyram, N-{2-[3-chloro-5-(trifluoromethyl)-2-pyridinyl]ethyl}-2-(trifluoromethyl)benzamide], the “level of infection measured by the % of primary infested shoots (in words)” value in the experiment on Powdery mildew [1] is recorded as “high decrease of infestation”. The “10DAT8 [% infested leaves]” value in the experiment on Powdery mildew [2] (18.5 g a.s./ha/m c.h.) was determined as 8.7%; with Powdery mildew [2] (25 g a.s./ha/m c.h.), 10%; in the experiment on Powdery mildew [2] (37.5 g a.s./ha/m c.h.), 2.7%; in the experiment with Powdery mildew [2] (50 g a.s./ha/m c.h.), 0.7%. In addition, the “10DAT8 [% efficacy] (Abbott)” value in the experiment with Powdery mildew [2] (18.5 g a.s./ha/m c.h.) came out at 91%; in the experiment on Powdery mildew [2] (25 g a.s./ha/m c.h.) it was 89.6%; with Powdery mildew [2] (37.5 g a.s./ha/m c.h.) it was 97.2%; in the experiment with Powdery mildew [2] (50 g a.s./ha/m c.h.) it was 99.3%. In the experiment on Powdery mildew [2] (assessment 10DAT8, 18.5 g to 50 g a.s./m c.h., visible dose rate effect, superior to triadimenol and boscalid from the lowest rate), the “efficacy against powdery mildew on apples against secondary infections (in words)” value was “excellent efficacy”. Also, the “345DAT8 [% infested shoots]” value in the experiment on Powdery mildew [3] (18.5 g a.s./ha/m c.h.) turned out to be 17.7%; in the experiment with Powdery mildew [3] (25 g a.s./ha/m c.h.), 14%; in the experiment with Powdery mildew [3] (37.5 g a.s./ha/m c.h.) it was 13%; in the experiment with Powdery mildew [3] (50 g a.s./ha/m c.h.) it was 9%. The “345DAT8 [% efficacy] (Abbott)” value came to 60.9% with Powdery mildew [3] (18.5 g a.s./ha/m c.h.), 69% in the experiment on Powdery mildew [3] (25 g a.s./ha/m c.h.), 71.2% with Powdery mildew [3] (37.5 g a.s./ha/m c.h.) and 80.1% with Powdery mildew [3] (50 g a.s./ha/m c.h.).

In the case of `O=C(Nc1ccccc1-c1ccc(Cl)cc1)c1cccnc1Cl` [Boscalid, 2-chloro-N-(4′-chlorobiphenyl-2-yl)nicotinamide], in the experiment with Powdery mildew [2] (125 g a.s./ha/m c.h.), the “10DAT8 [% infested leaves]” value is 46% and the “10DAT8 [% efficacy] (Abbott)” value worked out at 52.1%. Also, in the experiment with Powdery mildew [3] (125 g a.s./ha/m c.h.), the “345DAT8 [% infested shoots]” value was found to be 30.8% and the “345DAT8 [% efficacy] (Abbott)” value was 31.7%.

Turning to `CC(C)(C)C(O)C(Oc1ccc(Cl)cc1)n1cncn1` (centres unmarked) [Triadimenol], in the experiment on Powdery mildew [2] (25 g a.s./ha/m c.h.), the “10DAT8 [% infested leaves]” value worked out at 32% and the “10DAT8 [% efficacy] (Abbott)” value was 66.7%. Moreover, in the experiment with Powdery mildew [3] (25 g a.s./ha/m c.h.), the “345DAT8 [% infested shoots]” value worked out at 27.5% and the “345DAT8 [% efficacy] (Abbott)” value was 39.1%.
